From patent US20010006646A1, “METHOD AND SYSTEM FOR TREATMENT OF WOUNDS” (priority 1996, published 2001)

Experiments:
[1] = tested on: 18 month old chronic bed sore on the middle of their back; assay: Example 2: old chronic back wound (bed sore), treatment of a human patient; format: in vivo; conditions: dressings in conjunction with two serial courses of antibiotics (per orum Cipro 500 mg B.I.D., then 500 mg intravenous Keflex every eight hours)
Experimental: The chemical debriding complex applied to each of the wounds treated in examples 2 through 4 was an aerosolized liquid composition comprising:
(§1) The formulation of the present invention used in the following examples was prepared in the form of a gel as follows:
(§2) (4) 1 ml of mixture (a), 1 ml of mixture (b) and 1 ml of mixture (c) were combined using a three step homogenization process to form the gel formulation of the present invention used in the following examples, namely
(§3) The dose of formulation used in treating the wounds in the following examples was based on the wound volume. The wound volume was measured in cubic centimeters using well known methods.
(§4) The wound was subsequently treated using the gel formulation prepared as described above. Specifically, the given formulation was administered to the patient's wound as part of the following treatment procedure. Particularly, (i) the wound was prepared for administration of the given formulation by liberal application of a chemical debriding complex described above; (ii) after allowing the chemical debriding complex to bubble off, about three (3) minutes, a medicated pad comprising a sterile pad containing about three (3) ml of the gel formulation for each cubic centimeter of wound volume was placed over the wound and secured to the patient; (iii) the medicated pad was removed about twenty-four (24) hours later; (iv) steps (i) through (iii) were repeated. After seven (7) days of treatment, the wound was completely closed.
A human patient in very poor health suffering from CHF, diabetes, peripheral vascular disease, 10% body surface non-candidyal yeast infection, nutritional deficit, and “steroid” skin secondary to prednisone administration for auto-immune arthritis and from an 18 month old chronic bed sore on the middle of their back. Conventional treatments, including granulex, zinc oxide, duoderm and sorbasan dressings in conjunction with two serial courses of oral antibiotics, per orum Cipro 500 mg B.I.D. followed by 500 mg intravenous Keflex every eight hours, were unsuccessful at stimulating the healing of the wound. […]

[2] = tested on: 16 month old chronic interstitial, encapsulated, alpha-hemolytic, streptococcal channelling ulceration located on their right ankle; assay: Example 1: old chronic ankle wound, treatment of a human patient; format: in vivo; conditions: for outcome of conventional per orum treatments / outcome of conventional intravenous treatments: two week cycle each, not given in the same period
Experimental: The concepts of the invention will now be illustrated by the following Examples, which are intended to be purely exemplary and not limiting. The chemical debriding complex applied to the wound treated in example 1 was an aerosolized liquid composition comprising:
as §1, §2, §3
A human patient in normal health, suffered from a 16 month old chronic interstitial, encapsulated, alpha-hemolytic, streptococcal channelling ulceration located on their right ankle and tunnelled to the periosteum of the bone in their right ankle. […] Conventional intravenous treatments, including a two week cycle of penicillin and a two week cycle of amoxicillin, were unsuccessful. Note that the penicillin and the amoxicillin were not administered during the same two week period. Conventional per orum treatments, including a two week cycle of Keflex® and a two week cycle of Cipro®, were unsuccessful. Note that the Keflex and Cipro were not administered during the same two week period, nor were they administered during the same two week period as either of the penicillin or the amoxicillin.
as §4

[3] = tested on: six (6) month old chronic pressure-friction wound on both haunches; assay: Example 3: canine pressure wound; format: in vivo, Borzoi; conditions: duoderm post shaving; before treatment with the formulation

O=C(O)c1cn(C2CC2)c2cc(N3CCNCC3)c(F)cc2c1=O [Cipro]
outcome of conventional treatments at stimulating the healing of the wound [1]: unsuccessful | outcome of conventional per orum treatments [2]: unsuccessful

CC1=C(C(=O)O)N2C(=O)[C@@H](NC(=O)[C@H](N)c3ccccc3)[C@H]2SC1 [Keflex]
outcome of conventional treatments at stimulating the healing of the wound [1]: unsuccessful | outcome of conventional per orum treatments [2]: unsuccessful

CC1(C)S[C@@H]2[C@H](NC(=O)[C@H](N)c3ccc(O)cc3)C(=O)N2[C@H]1C(=O)O [amoxicillin]
outcome of conventional intravenous treatments [2]: unsuccessful

[O]=[Zn] [zinc oxide]
outcome of conventional treatments [3]: repeatedly unsuccessful | outcome of conventional treatments at stimulating the healing of the wound [1]: unsuccessful | outcome of conventional topical treatments ([2]; topical, before treatment with the gel formulation): repeatedly unsuccessful

penicillin
outcome of conventional intravenous treatments [2]: unsuccessful
